Experimental data: patent US11608343B2, “Substituted pyrimido[5,4-d]pyrimidines as HER2 inhibitors” (Boehringer Ingelheim International GmbH, priority 2020, dated 2023)
pIC50: −log10 of the molar value.

Legend:
Type in all cases: cell-based
HER2 YVMA = molecular target: T1, HER2 YVMA (Homo sapiens, UniProt P04626, INS775YVMA); test: pHER2 (ERBB2) YVMA assay: phosphorylation of HER2 YVMA at Tyr1221/1222 in HEK cells (AlphaScreen Surefire); conditions: doxycycline induced, 4 h with compound
T1 construct: expressed in transfected cells; host or cells: human HEK cells, retroviral transduction, doxycycline-inducible expression
Procedure: For the assay, HEK HER2 YVMA cells are seeded in MEM medium with 10% FBS. 4 hours prior to compound addition, HER2 YVMA expression is induced using 1 μg/mL Doxycycline. […] Subsequently, 60.000 cells/well in 60 μL are added. Cells are incubated with compound for 4 h at 37° C. […] The mixture is incubated at a temperature of 20-25° C. with shaking (700 rpm) for 20 min. After centrifugation, 4 μL of the lysate are transferred to Proxiplates. […] Plates are shaken for 1 min (1400 rpm) and incubated for 2 h at a temperature of 20-25° C. in the dark. […] Plates are shaken for 1 min (1400 rpm) and incubated for 2 h at a temperature of 20-25° C. in the dark. Plates are subsequently analyzed using an Envision reader platform. […] IC50 values are computed from these values in the MEGASTAR IC50 application using a 4 parametric logistic model. […] The results of the assay are provided as IC50 values.

EGFR wild type (WT) = molecular target: T2, EGFR wild type (WT) (Homo sapiens, UniProt P00533); test: pEGFR assay: phosphorylation of EGFR at Tyr1068 in HEK cells expressing EGFR WT (AlphaScreen Surefire); conditions: 4 h with compound
T2 construct: expressed in transfected cells; host or cells: human HEK cells (ATCC CRL-1573), retroviral transduction
Procedure: This assay quantifies the phosphorylation of EGFR at Tyr1068 and is used to measure the inhibitory effect of compounds on the transgenic EGFR wild type (WT) protein expressed in HEK cells.
Transduced cells are selected using puromycin. p-EGFR Tyr1068 is determined using the AlphaScreen Surefire pEGF Receptor (Tyr1068) Assay (PerkinElmer, TGRERS). For the assay, HEK EGFR WT cells are seeded in MEM medium with 10% FBS. […] Subsequently, 60.000 cells/well in 60 μL are added. Cells are incubated with compound for 4 h at 37° C. […] The mixture is incubated at a temperature of 20-25° C. with shaking (700 rpm) for 20 min. After centrifugation, 4 μL of the lysate are transferred to Proxiplates. […] Plates are shaken for 1 min (1400 rpm) and incubated for 2 h at a temperature of (20-25° C.) in the dark. […] Plates are shaken for 1 min (1400 rpm) and incubated for 2 h at a temperature of (20-25° C.) in the dark. Plates are subsequently analyzed using an Envision reader platform. […] IC50 values are computed from these values in the MEGASTAR IC50 application using a 4 parametric logistic model.
This cellular phospho-EGFR (pEGFR) compound dose-response assay quantifies the phosphorylation of EGFR at Tyr1068 in HEK cells expressing EGFR WT. The results of the assay are provided as IC50 values.

[1] = test system: NCI-H2170 (HER2 wild type) cells; test: Tumor cell line proliferation assay, NCI-H2170 (HER2 wild type), CellTiter-Glo; conditions: Homo sapiens, 72 h, read-out: GI50 NCI H-2170 HER2 wt amp.
Procedure: (§1) For proliferation assays, NCI-H2170 (HER2 wild type), NCI-H2170 HER2 YVMA and EGFR WT dependent A431 cells are used. NCI-H2170 HER2 YVMA or NCI-H2170 cells are seeded into 96-well plates at 750 cells/60 μL in growth media (RPMI ATCC+10% FCS, +Penicillin/Streptomycin). […] Compounds are added by using a HP D3000 Digital Dispenser one day after plating the cells. All treatments are performed in technical triplicates. Treated cells are incubated for 72 h at 37° C. with 5% CO2. CellTiter-Glo® Luminescent Cell Viability Assay (Promega) is performed and chemoluminescence is measured by using the multilabel Plate Reader VICTOR X4. The raw data are imported into and analyzed with the Boehringer Ingelheim proprietary software MegaLab (curve fitting based on the program PRISM, GraphPad Inc.).

[2] = test system: NCI-H2170 HER2 YVMA cells; test: Tumor cell line proliferation assay, NCI-H2170 HER2 YVMA, CellTiter-Glo; conditions: Homo sapiens, 72 h, read-out: GI50 NCI H-2170 HER2 YVMA
Description: HER2 YVMA Tumor Cell Line Model Generation and Proliferation Assays
Homology-directed genome engineering is employed to insert a 12 nucleotide sequence encoding YVMA into Exon 20 of the genomic HER2 locus in NCI-H2170 cells. […] The DNA template containing the HER2 exon 20 YVMA insertion variant was obtained from GenScript. PCR followed by Sanger sequencing is used to confirm the presence of the 12-nucleotide insertion in HER2 Exon 20 resulting in the YVMA amino acid duplication.
as §1

[3] = test system: EGFR WT dependent A431 cells; test: Tumor cell line proliferation assay, EGFR WT dependent A431 cells, CellTiter-Glo; conditions: Homo sapiens, A-431, 72 h, read-out: GI50 A431 EGFR wt amp.
Procedure: as §1

[4] = test system: Ba/F3 cells HER2 mutants (YVMA); test: Ba/F3 proliferation assay, HER2 YVMA, CellTiter-Glo; conditions: Mus musculus, BaF3, 72 h
Procedure: (§2) Ba/F3 Cell Model Generation and Proliferation Assays
(§3) Plasmids containing HER2 mutants and EGFR WT were obtained from GeneScript. To generate EGFR/HER2-dependent Ba/F3 models, Ba/F3 cells are transduced with retroviruses containing vectors that harbor EGFR WT, HER2 WT or HER2 mutants (YVMA). Platinum-E cells (Cell Biolabs) are used for retrovirus packaging. Retrovirus is added to Ba/F3 cells. To ensure infection, 4 μg/mL polybrene is added and cells are spin-infected. Infection efficiency is confirmed by measuring GFP-positive cells using a cell analyzer. Cells with an infection efficiency of 10% to 20% are further cultivated and puromycin selection with 1 μg/mL is initiated. As a control, parental Ba/F3 cells are used to assess the selection status. Selection is considered successful when parental Ba/F3 cells cultures die. To evaluate the transforming potential of HER2 mutations, the growth medium is no longer supplemented with IL-3. Ba/F3 cells harboring the empty vector are used as a control. A switch from IL-3 to EGF is performed for Ba/F3 cells expressing EGFR WT known for its dependency on EGF ligand. Approximately ten days before conducting the experiments, puromycin is left out. For proliferation assays (data in tables 10 and 12), Ba/F3 cells are seeded into 96-well plates at 5×10^3 cells/100 μL in growth media. Compounds are added by using a HP D3000 Digital Dispenser. All treatments are performed in technical triplicates. Treated cells are incubated for 72 h at 37° C. with 5% CO2. A CellTiter-Glo® Luminescent Cell Viability Assay (Promega) is performed and chemoluminescence is measured by using the multilabel Plate Reader VICTOR X4. The raw data are imported into and analyzed with the Boehringer Ingelheim proprietary software MegaLab (curve fitting based on the program PRISM, GraphPad Inc.).

[5] = test system: Ba/F3 cells expressing EGFR WT; test: Ba/F3 proliferation assay, EGFR WT (EGF dependent), CellTiter-Glo; conditions: Mus musculus, BaF3, EGF instead of IL-3, 72 h, read-out: GI50 BAF3 EGF dep.
Procedure: as §2, §3

Ba/F3 cells HER2 WT = test: Ba/F3 proliferation assay, HER2 WT, CellTiter-Glo; conditions: Mus musculus, BaF3, 72 h
Procedure: as §2, §3

T2 sequence (P00533 25-1210): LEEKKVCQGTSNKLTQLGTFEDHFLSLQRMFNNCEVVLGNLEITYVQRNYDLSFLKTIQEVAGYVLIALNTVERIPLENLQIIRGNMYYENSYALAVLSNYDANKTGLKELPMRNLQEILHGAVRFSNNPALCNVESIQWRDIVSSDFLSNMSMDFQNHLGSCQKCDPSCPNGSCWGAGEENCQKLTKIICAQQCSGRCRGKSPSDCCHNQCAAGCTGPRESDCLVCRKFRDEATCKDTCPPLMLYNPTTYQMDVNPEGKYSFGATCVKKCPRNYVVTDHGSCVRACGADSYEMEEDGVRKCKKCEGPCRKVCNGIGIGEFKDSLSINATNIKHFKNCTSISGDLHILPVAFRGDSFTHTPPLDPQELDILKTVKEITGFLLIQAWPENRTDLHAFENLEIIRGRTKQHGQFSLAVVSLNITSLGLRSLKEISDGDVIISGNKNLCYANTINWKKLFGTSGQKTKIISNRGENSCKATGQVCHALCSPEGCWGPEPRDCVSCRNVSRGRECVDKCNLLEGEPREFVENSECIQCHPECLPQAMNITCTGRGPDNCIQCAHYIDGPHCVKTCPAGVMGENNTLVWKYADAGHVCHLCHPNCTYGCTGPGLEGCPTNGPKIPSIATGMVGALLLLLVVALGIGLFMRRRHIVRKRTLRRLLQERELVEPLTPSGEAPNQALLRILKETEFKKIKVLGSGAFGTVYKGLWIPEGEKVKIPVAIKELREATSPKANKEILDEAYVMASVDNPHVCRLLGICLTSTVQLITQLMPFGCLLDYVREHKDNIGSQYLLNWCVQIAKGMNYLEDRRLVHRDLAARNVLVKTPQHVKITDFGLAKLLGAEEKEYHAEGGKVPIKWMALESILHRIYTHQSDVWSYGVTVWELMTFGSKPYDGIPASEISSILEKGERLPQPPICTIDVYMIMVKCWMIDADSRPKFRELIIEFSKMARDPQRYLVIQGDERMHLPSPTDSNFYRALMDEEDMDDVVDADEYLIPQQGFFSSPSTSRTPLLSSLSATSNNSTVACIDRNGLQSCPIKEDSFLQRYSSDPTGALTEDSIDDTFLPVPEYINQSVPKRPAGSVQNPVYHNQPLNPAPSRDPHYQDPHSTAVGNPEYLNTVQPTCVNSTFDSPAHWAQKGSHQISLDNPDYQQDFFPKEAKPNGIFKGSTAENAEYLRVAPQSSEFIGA
T1 sequence (P04626 with tags, fused parts or gaps INS775YVMA): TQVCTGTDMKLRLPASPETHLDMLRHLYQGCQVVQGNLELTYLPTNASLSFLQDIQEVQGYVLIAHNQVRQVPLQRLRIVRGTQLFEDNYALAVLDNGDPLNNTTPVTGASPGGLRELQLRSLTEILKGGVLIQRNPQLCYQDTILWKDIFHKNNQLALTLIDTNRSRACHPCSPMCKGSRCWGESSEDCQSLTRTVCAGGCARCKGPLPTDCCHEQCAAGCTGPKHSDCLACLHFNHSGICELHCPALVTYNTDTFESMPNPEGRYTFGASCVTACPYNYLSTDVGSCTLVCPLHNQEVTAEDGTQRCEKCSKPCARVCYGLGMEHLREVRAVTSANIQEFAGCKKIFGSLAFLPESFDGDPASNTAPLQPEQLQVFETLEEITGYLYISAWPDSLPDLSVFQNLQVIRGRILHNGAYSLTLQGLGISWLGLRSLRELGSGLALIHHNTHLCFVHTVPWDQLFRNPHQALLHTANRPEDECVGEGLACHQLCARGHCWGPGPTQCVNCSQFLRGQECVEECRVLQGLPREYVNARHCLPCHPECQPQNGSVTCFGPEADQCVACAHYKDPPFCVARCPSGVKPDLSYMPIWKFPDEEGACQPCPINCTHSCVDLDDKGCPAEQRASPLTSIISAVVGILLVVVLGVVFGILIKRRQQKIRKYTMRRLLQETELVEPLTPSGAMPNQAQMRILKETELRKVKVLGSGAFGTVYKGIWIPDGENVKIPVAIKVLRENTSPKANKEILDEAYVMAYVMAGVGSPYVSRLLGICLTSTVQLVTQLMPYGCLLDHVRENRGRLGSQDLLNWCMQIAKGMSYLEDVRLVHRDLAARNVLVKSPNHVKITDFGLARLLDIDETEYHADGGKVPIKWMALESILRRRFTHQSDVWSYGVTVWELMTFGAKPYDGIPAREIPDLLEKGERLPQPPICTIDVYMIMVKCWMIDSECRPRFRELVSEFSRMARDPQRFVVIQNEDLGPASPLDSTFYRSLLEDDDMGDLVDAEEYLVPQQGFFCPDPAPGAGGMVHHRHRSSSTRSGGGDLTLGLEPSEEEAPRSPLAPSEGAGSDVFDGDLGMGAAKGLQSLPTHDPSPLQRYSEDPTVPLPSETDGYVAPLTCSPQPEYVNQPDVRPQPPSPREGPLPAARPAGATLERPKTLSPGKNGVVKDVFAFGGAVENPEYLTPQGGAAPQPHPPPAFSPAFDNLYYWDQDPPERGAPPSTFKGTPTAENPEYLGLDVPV

Row | pIC50 (HER2 YVMA) | pIC50 (EGFR wild type (WT)) | GI50 [3] [nM] | GI50 [4] [nM] | GI50 [5] [nM] | GI50 (Ba/F3 cells HER2 WT) [nM] | SMILES | GI50 [1] [nM] | GI50 [2] [nM]
1 | 8.52 | 9.00 | 403 | 17 | 31 | – | C=CC(=O)Nc1ccc2ncnc(Nc3ccc(OCc4cccc(F)c4)c(Cl)c3)c2c1 [Allitinib, reference compound] | 36 | 203
2 | 7.96 | 7.14 | > 2000 | 17 | 756 | 2 | C=CC(=O)N1CCC(Nc2ncc3ncnc(Nc4ccc(Oc5ccc6c(c5)ncn6C)c(C)c4)c3n2)CC1 [Example I-14] | 10 | 37
3 | 8.40 | 5.85 | 4220 | 338 | 2970 | 10 | Cc1cc(Nc2ncnc3ccc(NC4=NC(C)(C)CO4)cc23)ccc1Oc1ccn2ncnc2c1 [Tucatinib, reference compound] | 58 | 798
4 | 8.70 | 7.03 | > 2000 | 14 | 1100 | 2 | C=CC(=O)N1CC[C@H](Nc2ncc3ncnc(Nc4ccc(Oc5ccn6ncnc6c5)c(C)c4)c3n2)C1 [Example I-17] | 9 | 39
5 | 7.48 | 6.50 | > 5000 | 60 | 1190 | – | C=CC(=O)Nc1ccc2ncnc(Nc3ccc(Oc4ccc5c(c4)ncn5C)c(C)c3)c2c1 [WO 2007/059257 Ex. 185, reference compound] | 108 | 926
6 | – | – | 55 | 5 | 14 | – | CCOc1cc2ncc(C#N)c(Nc3ccc(OCc4ccccn4)c(Cl)c3)c2cc1NC(=O)/C=C/CN(C)C [Neratinib, reference compound] | 3 | 37
7 | – | – | 199 | 44 | 70 | – | C=CC(=O)N1CCC[C@@H](n2nc(-c3ccc(Oc4ccccc4)cc3)c3c(N)ncnc32)C1 [Ibrutinib, reference compound] | 16 | 132
8 | 8.30 | – | 1 | 2 | 1 | 1 | C=CC(=O)N1CCC(Oc2cc3c(Nc4ccc(Cl)c(Cl)c4F)ncnc3cc2OC)CC1 [Poziotinib, reference compound] | 1 | 5
9 | 7.80 | 6.64 | > 5000 | 18 | 1750 | 2 | C=CC(=O)NC1CCN(c2ncc3ncnc(Nc4ccc(Oc5ccn6ccnc6c5)c(C)c4)c3n2)CC1 [Example I-12] | 8 | 71
10 | 7.89 | – | > 5000 | 16 | 1540 | 1 | C=CC(=O)NC1CCN(c2ncc3ncnc(Nc4ccc(Oc5ccc6c(c5)ncn6C)c(C)c4)c3n2)CC1 [Example I-01] | 6 | 33
11 | 7.70 | 6.04 | > 5000 | 38 | > 5000 | 2 | C=CC(=O)NC1CCN(c2ncc3ncnc(Nc4ccc(Oc5ccc6c(c5)ncn6C)c(OC)c4)c3n2)CC1 [Example I-03] | 11 | 139
12 | 7.36 | 6.11 | > 5000 | 31 | > 5000 | 1 | C=CC(=O)NC1CCN(c2ncc3ncnc(Nc4cc(F)c(Oc5ccn6ncnc6c5)c(Cl)c4)c3n2)CC1 [Example I-06] | 12 | 215
13 | 7.59 | 6.31 | > 5000 | 32 | > 5000 | 3 | C=CC(=O)NC1(C)CCN(c2ncc3ncnc(Nc4ccc(Oc5ccc6c(c5)ncn6C)c(OC)c4)c3n2)CC1 [Example I-04] | 12 | 99
14 | 7.96 | 8.15 | 16 | 14 | 13 | 3 | C=CC(=O)Nc1cccc(-n2c(=O)c(Oc3ccc(F)cc3F)cc3cnc(Nc4cnn(C)c4)nc32)c1 [WO 2019/046775 Comp. 2, reference compound] | 22 | 34
15 | 7.47 | 6.20 | > 5000 | 37 | 3010 | 1 | C#Cc1cc(Nc2ncnc3cnc(N4CCC(NC(=O)C=C)CC4)nc23)ccc1Oc1ccc2c(c1)ncn2C [Example I-02] | 13 | 228
16 | 8.00 | 6.50 | > 5000 | 21 | 1880 | 1 | C=CC(=O)NC1CCN(c2ncc3ncnc(Nc4ccc(Oc5ccc6c(c5)ncn6C)c(Cl)c4)c3n2)CC1 [Example I-05] | 8 | 55
17 | 8.40 | 6.86 | > 2000 | 29 | 3270 | – | C=CC(=O)N1CC[C@@H](Nc2ncc3ncnc(Nc4ccc(Oc5ccn6ncnc6c5)c(C)c4)c3n2)C1 [Example I-18] | 10 | 87
